Like-named read-outs stand apart in the source and are kept apart here.
What was measured:
[1] = Root canal treatment study (irrigation and oral rinses); assay type: in vivo, patients; settings: ORP water solution 109 pts; 2.5% SH 129 pts
Text: Acute root canal was defined as an X-ray image showing a periapical lesion in addition to negative vitality and positive percussion clinical tests. Retrospective analysis of paired-cases presenting similar root canal infections between 2002 and 2003 at the same Institution was undertaken for the control group (the “SH” group) (see FIGS. 7A-B).
During the process the ducts were isolated to avoid contamination. The cavity was opened and the root drilled. ORP water solution flush started with the drilling process instead of using water or saline solution. Instrumentation was conducted according to the crown down technique using rotatory NiTi instruments. Instrumentation was done according to the extension of the duct as measured by the X ray. Duct irrigation was conducted with the ORP water solution after using each instrument. […] The duct was dried out with dental paper and occlusion done by lateral condensation with calcium hydroxide and epoxy resin. […] After 30 days, oral rinse once daily indefinitely was recommended.
A standard art-known treatment procedure with sodium hypochlorite (SH) was conducted for root canal treatment in control patients. Particular care was paid to avoid infiltration of the solution to the periapical region during the manipulation. All patients in the control group received ampicilin (500 mg tid) or cephalexin (500 mg bid) for 7 days as well as anti-inflammatory drugs (naproxen 500 mg bid) as necessary.
The demographic characteristics were similar for both groups (FIGS. 7 A & B).

[2] = system: murine polychromatic erythrocytes; settings: for PCE/NCE ratio: bone marrow, cyclophosphamide 8 mg/mL, 12.5 ml/kg i.p. day 2
Description: The mammalian in vivo micronucleus test is used for the identification of substances which cause damage to chromosomes or the mitotic apparatus of murine polychromatic erythrocytes. This damage results in the formation of “micronuclei,” intracellular structures containing lagging chromosome fragments or isolated whole chromosomes. […] The positive control mice received a single intraperitoneal injection of cyclophosphamide (8 mg/mL, 12.5 ml/kg) on day 2. All mice were observed immediately after injection for any adverse reactions. […] On day 3, all mice were weighed and terminated.
The femurs were excised from the terminated mice, the bone marrow was extracted, and duplicate smear preparations were performed for each mouse. The bone marrow slides for each animal were read at 40× magnification. The ratio of polychromatic erythrocytes (PCE) to normochromatic erythrocytes (NCE), an index of bone marrow toxicity, was determined for each mouse by counting a total of at least 200 erythrocytes. Then a minimum of 2000 scoreable PCE per mouse were evaluated for the incidence of micronucleated polychromatic erythrocytes. Statistical analysis of the data were done using the Mann and Whitney test (at 5% risk threshold) from a statistical software package (Statview 5.0, SAS Institute Inc., USA).

[3] = system: human diploid fibroblasts (HDFs); test: Cell viability, apoptosis and necrosis by flow cytometry; assay type: cell-based; settings: 880 mM
Description: HP is known to be toxic to eukaryotic cells, increasing apoptosis and necrosis and reducing cellular viability. […] HDF cultures were obtained from three different foreskins, which were pooled and cryopreserved together for the purpose of this study. Only diploid cells were used for all experiments. […] Simultaneous analyses of these parameters were performed in the same cell populations by flow cytometry using: […] FIG. 4B) Annexin V-FITC and FIG. 4C) Propidium iodide. FIGS. 8A-8C disclose percentage values expressed as mean±SD (n=3).

HDFs = settings: human, 1 month, 5 µM

## [Na+].[O-]Cl [2.5% SH, sodium hypochlorite]
[1]
  dental losses: Dental losses only occurred in the SH control group
  patients with an acute local reaction after root canal treatment: 16 patients
  total number of affected teeth: 23

## O=P1(N(CCCl)CCCl)NCCCO1 (stereo not drawn) [cyclophosphamide]
[2]; females
  PCE/NCE ratio: 0.73
[2]; males
  PCE/NCE ratio: 0.77
[2]; males, minimum of 2000 PCE per mouse evaluated
  number of polychromatic erythrocytes bearing micronuclei: 11.0

## OO [HP, hydrogen peroxide]
[3]; 5 min
  Cell viability: 55%
[3]; 30 min
  Cell viability: 5%
HDFs
  cells with increased SA-β-Gal expression: 86%
